Measured values taken from ChEMBL document CHEMBL4402590, “Small-Molecule Antagonist Targeting Exportin-1 via Rational Structure-Based Discovery” (J Med Chem, 2020).
Calls of active or inactive are those of the source.

How the values were obtained:
Assay type in all cases: functional, organism-based
Mus musculus [1] = assay: Anti-inflammatory activity against DSS-induced ulcerative colitis C57BL/6J mouse model assessed as reduction in IL-23 production at 10 mg/kg, po administered for 7 days and measured on day 7 by ELISA
Mus musculus [2] = assay: Anti-inflammatory activity against DSS-induced ulcerative colitis C57BL/6J mouse model assessed as reduction in IL-1beta production at 10 mg/kg, po administered for 7 days and measured on day 7 by ELISA
Mus musculus [3] = assay: Anti-inflammatory activity against DSS-induced ulcerative colitis C57BL/6J mouse model assessed as reduction in TNFalpha production at 10 mg/kg, po administered for 7 days and measured on day 7 by ELISA
Mus musculus [4] = assay: Anti-inflammatory activity against DSS-induced ulcerative colitis C57BL/6J mouse model assessed as restoration of colon length at 10 mg/kg, po administered for 7 days and measured on day 7
Mus musculus [5] = assay: Anti-inflammatory activity against DSS-induced ulcerative colitis C57BL/6J mouse model assessed as reduction in IL-6 production at 10 mg/kg, po administered for 7 days and measured on day 7 by ELISA
Mus musculus [6] = assay: Anti-inflammatory activity against DSS-induced ulcerative colitis C57BL/6J mouse model assessed as reduction in colon inflammation at 10 mg/kg, po administered for 7 days and measured on day 7
Mus musculus [7] = assay: Anti-inflammatory activity against DSS-induced ulcerative colitis C57BL/6J mouse model assessed as restoration of damaged colon mucosal layer at 10 mg/kg, po administered for 7 days and measured on day 7 by ELISA
Mus musculus [8] = assay: Anti-inflammatory activity against DSS-induced ulcerative colitis C57BL/6J mouse model assessed as reduction in body weight loss at 10 mg/kg, po administered for 7 days and measured daily
Mus musculus [9] = assay: Anti-inflammatory activity against DSS-induced ulcerative colitis C57BL/6J mouse model assessed as reduction in colon ulceration at 10 mg/kg, po administered for 7 days and measured on day 7
Mus musculus [10] = assay: Anti-inflammatory activity against DSS-induced ulcerative colitis C57BL/6J mouse model assessed as reduction in diarrhea at 10 mg/kg, po administered for 7 days and measured daily
Mus musculus [11] = assay: Anti-inflammatory activity against DSS-induced ulcerative colitis C57BL/6J mouse model assessed as reduction in colon swelling at 10 mg/kg, po administered for 7 days and measured on day 7

Measured: Activity

O=C(O)C[C@H]1CCc2c1[nH]c1ccc(OCc3ccc(C4CCCC4)c(C(F)(F)F)c3)cc21
active: Mus musculus [1] | Mus musculus [2] | Mus musculus [3] | Mus musculus [4] | Mus musculus [5] | Mus musculus [6] | Mus musculus [7] | Mus musculus [8] | Mus musculus [9] | Mus musculus [10] | Mus musculus [11]
